The values that follow come from patent publication US20070148723A1, “METHOD AND APPARATUS FOR DETECTING PRESENCE OF TOXIC MATERIAL WITHIN SAMPLE” (SAMSUNG ELECTRONICS CO., LTD., priority 2005, published 2007).

Series [1] deals with electron transfer system of sub-mitochondrial particles. In kind it is biochemical. The note with it: for cathode peak current at 1.019 V relative to a sample of 0 wt %: 2.5 wt %, FIG. 4 / FIG. 5. An excerpt: FIGS. 1A is a diagram of an exemplary embodiment of a current measuring device; and FIG. 1B is a schematic diagram of an exemplary embodiment of a current measuring apparatus. Referring to FIG. 1A, a reaction vessel 10 includes an Ag/AgCl standard electrode 20 (RE in FIG. 1B), a platinum working electrode 30 (WE in FIG. 1B), and a platinum counter electrode 40 (CE in FIG. 1B). The standard electrode 20, the working electrode 30, and the counter electrode 40 are connected to a voltmeter 50 (e.g., a Perkin-Elmer VMP multichannel potentiostat; V in FIG. 1B). An X/Y plotter 60 is connected to the voltmeter 50. 0.5× PBS including 0.5 mg/ml of SMP (submitochondrial particle) (Havard Bioscience), 6 mM of NADH, and 50 mM of KCl was allowed to react at ambient temperature for 1 hour. […] The cyclic voltammogram was measured with a scan speed of 50 mV/sec CV at a sweep range of 0.85 to 1.35 V. […] FIG. 3 is a graph showing the cyclic voltammogram of 2.5 mM Ru(bpy)3^2+ in phosphate-buffered saline (PBS). Then, ethanol samples having final concentrations (on a weight basis) of 0 wt %, 2.5 wt %, 5 wt %, and 10 wt %, or a sample having 2.5 wt % of sorbitol was added to 0.5× PBS including 0.5 mg/ml of SMP, (submitochondrial particle), 6 mM of NADH, and 50 mM of KCl to prepare 7 ml of a final reaction solution and was allowed to react for 1 hour at ambient temperature. Next, absorbance of the final reaction solution was measured at 340 nanometers (nm) using a spectrophotometer and the concentration of NADH was measured using an optical method. […] The cyclic voltammogram was measured with a scan speed of 50 mV/sec CV at a sweep range of 0.85 to 1.35V.

For series [2] the test system is unchanged. Kind of series: Optical method: NADH concentration by absorbance at 340 nm of SMP/NADH reaction solution. In kind it is biochemical. The note with it: 2.5 wt %. As to the method: Then, ethanol samples having final concentrations (on a weight basis) of 0 wt %, 2.5 wt %, 5 wt %, and 10 wt %, or a sample having 2.5 wt % of sorbitol was added to 0.5× PBS including 0.5 mg/ml of SMP, (submitochondrial particle), 6 mM of NADH, and 50 mM of KCl to prepare 7 ml of a final reaction solution and was allowed to react for 1 hour at ambient temperature. Next, absorbance of the final reaction solution was measured at 340 nanometers (nm) using a spectrophotometer and the concentration of NADH was measured using an optical method. […] The cyclic voltammogram was measured with a scan speed of 50 mV/sec CV at a sweep range of 0.85 to 1.35V.

[3] abbreviates: 0.5 mg/ml SMP, 6 mM NADH, 1 hour at ambient temperature.

For `CCO` [ethanol], the “effect on electron transfer reaction of sub-mitochondrial particles (toxicity)” value in series [1] is “obstructs the electron transfer reaction of sub-mitochondrial particles”. In addition, in series [1] (0, 2.5, 5 and 10 wt %, 0.5 mg/ml SMP, 6 mM NADH, 1 hour at ambient temperature, FIG. 4), the “cathode peak current at 1.019 V in a cyclic voltammogram as concentration increases” value is “moves towards in less negative (i.e., more positive, cathodic) direction”. Also, the “cathode peak current at 1.019 V relative to a sample of 0 wt %” value in series [1] (setting [3]) is recorded as “moves toward a less negative value”.

As to `OC[C@@H](O)[C@@H](O)[C@H](O)[C@@H](O)CO` [sorbitol], the “effect on electron transfer reaction of sub-mitochondrial particles (toxicity)” value in series [1] was “does not include toxic material”. For the same compound, the “cathode peak current at 1.019 V relative to a sample of 0 wt %” value in series [1] (setting [3]) is recorded as “moves towards a more negative value”. In addition, in series [2] (conclusion from absorbance at 340 nm), the “toxicity by optical measurement” value was “no toxicity”. In addition, the “absorbance at 340 nm compared to a sample of 0 wt %” value in series [2] (spectrophotometer, data not illustrated) is recorded as “no changes”.
